According to patent publication US20100267561A1, “HERBICIDAL PYRIDAZINONE DERIVATIVES” (priority 2007, published 2010):
Where two headings read alike, the source gives them in different places.

Columns and labels:
Assay type in all cases: in vivo
[1] = tested on: giant foxtail (Setaria faberi); experiment: Test A pre-/postemergence plant response; conditions: Setaria faberi, 240 h, read-out: Plant response rating, Foxtail, Giant; for pest or weed control at 125 g/ha: 125 g ai/ha; for pest or weed control at 500 g/ha: 500 g ai/ha
In short: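 Ratings run 0–100 (100 = complete control), assigned visually against untreated controls roughly 10 days after treatment in a greenhouse. Compounds, formulated in non-phytotoxic solvent containing surfactant, were applied as a soil-directed preemergence spray and concurrently postemergence to one- to two-leaf plants 2–10 cm tall.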

[2] = tested on: bermudagrass (Cynodon dactylon); experiment: Test B pre-/postemergence plant response; conditions: Cynodon dactylon, read-out: Plant response rating, Bermudagrass; for pest or weed control at 16 g/ha: 16 g ai/ha; for pest or weed control at 31 g/ha: 31 g ai/ha, 100 complete control; for pest or weed control at 62 g/ha: 62 g ai/ha; for pest or weed control at 125 g/ha: 125 g ai/ha
Excerpt: (§1) Seeds of plant species selected from blackgrass (Alopecurus myosuroides), downy bromegrass (Bromus tectorum), green foxtail (Setaria viridis), Italian ryegrass (Lolium multiflorum), wheat (Triticum aestivum), wild oat (Avena fatua), catchweed bedstraw (Galium aparine), bermudagrass (Cynodon dactylon), surinam grass (Brachiaria decumbens), cocklebur (Xanthium strumarium), corn (Zea mays), large crabgrass (Digitaria sanguinalis), woolly cupgrass (Eriochloa villosa), giant foxtail (Setaria faberii), goosegrass (Eleusine indica), johnsongrass (Sorghum halepense), kochia (Kochia scoparia), lambsquarters (Chenopodium album), morningglory (Ipomoea coccinea), eastern black (E.B.) nightshade (Solanum ptycanthum), yellow nutsedge (Cyperus esculentus), pigweed (Amaranthus retroflexus), common ragweed (Ambrosia elation), Russian thistle (Salsola iberica), soybean (Glycine max), common (oilseed) sunflower (Helianthus annuus), and velvetleaf (Abutilon theophrasti) were planted and treated preemergence with test chemicals formulated in a non-phytotoxic solvent mixture which included a surfactant.
(§2) At the same time, plants selected from these crop and weed species and also winter barley (Hordeum vulgare), canarygrass (Phalaris minor), chickweed (Stellaria media) and windgrass (Apera spica-venti) were treated with postemergence applications of some of the test chemicals formulated in the same manner. Plants ranged in height from 2 to 18 cm (1- to 4-leaf stage) for postemergence treatments.
(§3) Plant species in the flooded paddy test consisted of rice (Oryza sativa), umbrella sedge (Cyperus difformis), ducksalad (Heteranthera limosa) and barnyardgrass (Echinochloa crus-galli) grown to the 2-leaf stage for testing. At time of treatment, test pots were flooded to 3 cm above the soil surface, treated by application of test compounds directly to the paddy water, and then maintained at that water depth for the duration of the test. Treated plants and controls were maintained in a greenhouse for 13 to 15 days, after which time all species were compared to controls and visually evaluated. Plant response ratings, summarized in Table B, are based on a scale of 0 to 100 where 0 is no effect and 100 is complete control. A dash (-) response means no test result.

[3] = tested on: blackgrass (Alopecurus myosuroides); experiment: Test B pre-/postemergence plant response; conditions: Alopecurus myosuroides, read-out: Plant response rating, Blackgrass; for pest or weed control at 16 g/ha: 16 g ai/ha; for pest or weed control at 31 g/ha: 31 g ai/ha, 100 complete control; for pest or weed control at 62 g/ha: 62 g ai/ha; for pest or weed control at 125 g/ha: 125 g ai/ha
Excerpt: as §1, §2, §3

[4] = tested on: common (oilseed) sunflower (Helianthus annuus); experiment: Test B pre-/postemergence plant response; conditions: Helianthus annuus, pre-emergence, Preemergence, read-out: Plant response rating, Sunflower
Excerpt: as §1, §2, §3

[5] = tested on: downy bromegrass (Bromus tectorum); experiment: Test B pre-/postemergence plant response; conditions: Bromus tectorum, read-out: Plant response rating, Bromegrass, Downy; for pest or weed control at 16 g/ha: 16 g ai/ha; for pest or weed control at 31 g/ha: 31 g ai/ha, 100 complete control; for pest or weed control at 62 g/ha: 62 g ai/ha; for pest or weed control at 125 g/ha: 125 g ai/ha
Excerpt: as §1, §2, §3

[6] = tested on: giant foxtail (Setaria faberii); experiment: Test B pre-/postemergence plant response; conditions: Setaria faberi, read-out: Plant response rating, Foxtail, Giant; for pest or weed control at 16 g/ha: 16 g ai/ha; for pest or weed control at 31 g/ha: 31 g ai/ha, 100 complete control; for pest or weed control at 62 g/ha: 62 g ai/ha; for pest or weed control at 125 g/ha: 125 g ai/ha
Excerpt: as §1, §2, §3

[7] = tested on: goosegrass (Eleusine indica); experiment: Test B pre-/postemergence plant response; conditions: Eleusine indica, read-out: Plant response rating, Goosegrass; for pest or weed control at 16 g/ha: 16 g ai/ha; for pest or weed control at 31 g/ha: 31 g ai/ha, 100 complete control; for pest or weed control at 62 g/ha: 62 g ai/ha; for pest or weed control at 125 g/ha: 125 g ai/ha
Excerpt: as §1, §2, §3

[8] = tested on: johnsongrass (Sorghum halepense); experiment: Test B pre-/postemergence plant response; conditions: Sorghum halepense, read-out: Plant response rating, Johnsongrass; for pest or weed control at 16 g/ha: 16 g ai/ha; for pest or weed control at 31 g/ha: 31 g ai/ha, 100 complete control; for pest or weed control at 62 g/ha: 62 g ai/ha; for pest or weed control at 125 g/ha: 125 g ai/ha
Excerpt: as §1, §2, §3

[9] = tested on: pigweed (Amaranthus retroflexus); experiment: Test B pre-/postemergence plant response; conditions: Amaranthus retroflexus, post-emergence, Postemergence, read-out: Plant response rating, Pigweed
Excerpt: as §1, §2, §3

[10] = tested on: soybean (Glycine max); experiment: Test B pre-/postemergence plant response; conditions: Glycine max, read-out: Plant response rating, Soybean; for plant injury at 16 g/ha: 16 g ai/ha; for plant injury at 31 g/ha: 31 g ai/ha, 100 complete control; for plant injury at 62 g/ha: 62 g ai/ha; for plant injury at 125 g/ha: 125 g ai/ha
Excerpt: as §1, §2, §3

[11] = tested on: velvetleaf (Abutilon theophrasti); experiment: Test B pre-/postemergence plant response; conditions: Abutilon theophrasti, read-out: Plant response rating, Velvetleaf; for pest or weed control at 16 g/ha: 16 g ai/ha; for pest or weed control at 31 g/ha: 31 g ai/ha, 100 complete control; for pest or weed control at 62 g/ha: 62 g ai/ha; for pest or weed control at 125 g/ha: 125 g ai/ha
Excerpt: as §1, §2, §3

[12] = tested on: wheat (Triticum aestivum); experiment: Test B pre-/postemergence plant response; conditions: Triticum aestivum, read-out: Plant response rating, Wheat; for plant injury at 16 g/ha: 16 g ai/ha; for plant injury at 31 g/ha: 31 g ai/ha, 100 complete control; for plant injury at 62 g/ha: 62 g ai/ha; for plant injury at 125 g/ha: 125 g ai/ha
Excerpt: as §1, §2, §3

[13] = post-emergence, Postemergence, 0 to 100 scale, 0 no effect, 100 complete control
[14] = pre-emergence, Preemergence, 0 to 100 scale (0 no effect, 100 complete control)
[15] = post-emergence, Postemergence, scale 0 to 100
[16] = post-emergence, Postemergence, scale 0 to 100, 0 no effect
[17] = pre-emergence, Preemergence, scale 0 to 100 (0 no effect, 100 complete control)
[18] = pre-emergence, Preemergence, 0 to 100 scale, 0 no effect
[19] = pre-emergence, Preemergence, scale 0 to 100

Molecule `CCc1cc(-c2ccc(C(F)(F)F)cc2)nn1-c1c(O)cnn(C)c1=O` [Compound 11, 4-[5-ethyl-3-[4-(trifluoromethyl)phenyl]-1H-pyrazol-1-yl]-5-hydroxy-2-methyl-3(2H)-pyridazinone] has a pest or weed control at 125 g/ha [1, 13] of 90%, a pest or weed control at 500 g/ha [1, 13] of 100% and a pest or weed control at 125 g/ha [1, 14] of 100%. The pest or weed control at 500 g/ha [1, 14] was 100%, the pest or weed control at 16 g/ha [2, 15] was 100% and the pest or weed control at 31 g/ha [2, 16] was 100%. The pest or weed control at 62 g/ha [2, 15] was 100%, the pest or weed control at 125 g/ha [2, 15] was 100% and the pest or weed control at 16 g/ha [2, 17] was 100%. The pest or weed control at 31 g/ha [2, 18] was 100%, the pest or weed control at 62 g/ha [2, 19] was 100% and the pest or weed control at 125 g/ha [2, 19] was 100%. It also gave a pest or weed control at 16 g/ha [3, 15] of 100%, a pest or weed control at 31 g/ha [3, 16] of 100% and a pest or weed control at 62 g/ha [3, 15] of 100%. It also gave a pest or weed control at 125 g/ha [3, 15] of 100%, a pest or weed control at 16 g/ha [3, 17] of 100% and a pest or weed control at 31 g/ha [3, 18] of 100%. The pest or weed control at 62 g/ha [3, 19] was 100%, the pest or weed control at 125 g/ha [3, 19] was 100% and the pest or weed control at 16 g/ha ([4]; 16 g ai/ha, scale 0 to 100 (0 no effect, 100 complete control)) was 0%. It also gave a pest or weed control at 31 g/ha ([4]; 31 g ai/ha, 0 to 100 scale, 0 no effect, 100 complete control) of 0%, a pest or weed control at 62 g/ha ([4]; 62 g ai/ha, scale 0 to 100) of 0% and a pest or weed control at 125 g/ha ([4]; 125 g ai/ha, scale 0 to 100) of 0%. It also gave a pest or weed control at 16 g/ha [5, 15] of 85%, a pest or weed control at 31 g/ha [5, 16] of 90% and a pest or weed control at 62 g/ha [5, 15] of 98%. For the same molecule, the pest or weed control at 125 g/ha [5, 15] was 100%, the pest or weed control at 16 g/ha [5, 17] was 50% and the pest or weed control at 31 g/ha [5, 18] was 95%. The pest or weed control at 62 g/ha [5, 19] was 98%, the pest or weed control at 125 g/ha [5, 19] was 100% and the pest or weed control at 16 g/ha [6, 15] was 100%. The pest or weed control at 31 g/ha [6, 16] was 100%, the pest or weed control at 62 g/ha [6, 15] was 100% and the pest or weed control at 125 g/ha [6, 15] was 100%. For the same molecule, the pest or weed control at 16 g/ha [6, 17] was 90%, the pest or weed control at 31 g/ha [6, 18] was 90% and the pest or weed control at 62 g/ha [6, 19] was 100%. It also gave a pest or weed control at 125 g/ha [6, 19] of 100%, a pest or weed control at 16 g/ha [7, 15] of 100% and a pest or weed control at 31 g/ha [7, 16] of 100%. For the same molecule, the pest or weed control at 62 g/ha [7, 15] was 100%, the pest or weed control at 125 g/ha [7, 15] was 100% and the pest or weed control at 16 g/ha [7, 17] was 85%. The pest or weed control at 31 g/ha [7, 18] was 90%, the pest or weed control at 62 g/ha [7, 19] was 100% and the pest or weed control at 125 g/ha [7, 19] was 100%. For the same molecule, the pest or weed control at 16 g/ha [8, 15] was 100%, the pest or weed control at 31 g/ha [8, 16] was 100% and the pest or weed control at 62 g/ha [8, 15] was 100%. For the same molecule, the pest or weed control at 125 g/ha [8, 15] was 100%, the pest or weed control at 16 g/ha [8, 17] was 90% and the pest or weed control at 31 g/ha [8, 18] was 98%. The pest or weed control at 62 g/ha [8, 19] was 100%, the pest or weed control at 125 g/ha [8, 19] was 100% and the pest or weed control at 16 g/ha ([9]; 16 g ai/ha, scale 0 to 100) was 0%. The pest or weed control at 31 g/ha ([9]; 31 g ai/ha, scale 0 to 100, 0 no effect, 100 complete control) was 0%, the pest or weed control at 62 g/ha ([9]; 62 g ai/ha, scale 0 to 100) was 0% and the pest or weed control at 125 g/ha ([9]; 125 g ai/ha, scale 0 to 100) was 5%. It also gave a plant injury at 16 g/ha [10, 15] of 0%, a plant injury at 31 g/ha [10, 16] of 0% and a plant injury at 62 g/ha [10, 15] of 0%. It also gave a plant injury at 125 g/ha [10, 15] of 0%, a plant injury at 16 g/ha [10, 17] of 0% and a plant injury at 31 g/ha [10, 18] of 0%. The plant injury at 62 g/ha [10, 19] was 0%, the plant injury at 125 g/ha [10, 19] was 0% and the pest or weed control at 16 g/ha [11, 15] was 0%. For the same molecule, the pest or weed control at 31 g/ha [11, 16] was 0%, the pest or weed control at 62 g/ha [11, 15] was 0% and the pest or weed control at 125 g/ha [11, 15] was 0%. The pest or weed control at 16 g/ha [11, 17] was 0%, the pest or weed control at 31 g/ha [11, 18] was 0% and the pest or weed control at 62 g/ha [11, 19] was 0%. It also gave a pest or weed control at 125 g/ha [11, 19] of 0%, a plant injury at 16 g/ha [12, 15] of 90% and a plant injury at 31 g/ha [12, 16] of 100%. For the same molecule, the plant injury at 62 g/ha [12, 15] was 100%, the plant injury at 125 g/ha [12, 15] was 100% and the plant injury at 16 g/ha [12, 17] was 90%. For the same molecule, the plant injury at 31 g/ha [12, 18] was 95%, the plant injury at 62 g/ha [12, 19] was 95% and the plant injury at 125 g/ha [12, 19] was 100%.
